Measured values published in ChEMBL document CHEMBL1158894, “A new P-glycoprotein inhibitor from the caper spurge (Euphorbia lathyris)” (J Nat Prod, 2003).

Assays:
[1] = biological target: ATP-dependent translocase ABCB1 (Homo sapiens, UniProt P08183); assay: Inhibition of P-glycoprotein-mediated daunomycin transport in human K562/R7 cells assessed as accumulation at 5 uM; type: cell-based; design: scale not given: the % may be the effect or the level left; settings: k562/r7, 5 µM
[2] = Inhibition of P-glycoprotein NBD2 domain assessed as quenching of intrinsic fluorescence at 60 uM; design: scale not given: the % may be the effect or the level left
[3] = Inhibition of P-glycoprotein NBD2 domain

Chain of ATP-dependent translocase ABCB1 (P08183 whole entry, the tested form may be a part): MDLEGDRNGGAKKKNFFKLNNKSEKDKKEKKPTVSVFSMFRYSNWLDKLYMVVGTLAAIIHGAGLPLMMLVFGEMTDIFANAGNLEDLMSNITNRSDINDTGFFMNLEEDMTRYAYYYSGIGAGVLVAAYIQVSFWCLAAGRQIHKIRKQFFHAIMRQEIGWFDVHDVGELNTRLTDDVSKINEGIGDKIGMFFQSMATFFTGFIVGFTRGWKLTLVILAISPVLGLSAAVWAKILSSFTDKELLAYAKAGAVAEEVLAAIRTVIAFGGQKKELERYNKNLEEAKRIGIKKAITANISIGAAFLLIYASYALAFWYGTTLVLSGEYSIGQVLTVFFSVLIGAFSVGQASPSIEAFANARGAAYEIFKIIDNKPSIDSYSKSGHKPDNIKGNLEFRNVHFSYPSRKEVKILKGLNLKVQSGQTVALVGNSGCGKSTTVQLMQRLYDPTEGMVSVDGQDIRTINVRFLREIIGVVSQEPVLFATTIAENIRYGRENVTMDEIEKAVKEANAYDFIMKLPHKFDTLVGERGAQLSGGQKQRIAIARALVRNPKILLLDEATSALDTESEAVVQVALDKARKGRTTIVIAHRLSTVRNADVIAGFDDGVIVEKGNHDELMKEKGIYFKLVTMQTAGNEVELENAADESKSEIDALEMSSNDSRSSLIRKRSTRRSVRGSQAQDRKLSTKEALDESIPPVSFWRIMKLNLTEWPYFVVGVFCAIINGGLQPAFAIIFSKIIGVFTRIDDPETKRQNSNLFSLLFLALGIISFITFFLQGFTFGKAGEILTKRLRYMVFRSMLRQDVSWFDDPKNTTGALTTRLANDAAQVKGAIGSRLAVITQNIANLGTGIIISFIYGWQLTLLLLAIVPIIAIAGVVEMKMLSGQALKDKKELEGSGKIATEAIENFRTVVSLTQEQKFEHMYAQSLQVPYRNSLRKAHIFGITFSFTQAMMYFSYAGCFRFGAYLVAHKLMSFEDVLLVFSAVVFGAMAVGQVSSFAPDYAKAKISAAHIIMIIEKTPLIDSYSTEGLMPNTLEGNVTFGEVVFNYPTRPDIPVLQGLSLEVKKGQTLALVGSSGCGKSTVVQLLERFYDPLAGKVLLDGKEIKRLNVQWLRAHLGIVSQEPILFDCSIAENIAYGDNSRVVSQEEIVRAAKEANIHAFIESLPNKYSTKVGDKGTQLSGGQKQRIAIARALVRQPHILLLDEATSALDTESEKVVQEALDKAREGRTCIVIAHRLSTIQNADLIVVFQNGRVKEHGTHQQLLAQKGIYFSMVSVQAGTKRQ

SMILES	Activity [1] [%]	Activity [2] [%]	Kd [3] [µM]
CCCCCC(=O)O[C@H]1[C@@H](C)C[C@]2(OC(C)=O)C(=O)/C(C)=C/[C@@H]3[C@H](CC/C(COC(C)=O)=C/[C@@H]12)C3(C)C	80	13.8	
CCCCCC(=O)O[C@H]1[C@@H](C)C[C@]2(OC(C)=O)C(=O)/C(C)=C/[C@@H]3[C@H](CC/C(CO)=C/[C@@H]12)C3(C)C	95	78.5	16.9
